Data reported in US12643887B2, “Heterocyclic derivatives with cardiomyocyte proliferation activity for treatment of heart diseases” (Tongji University, priority 2019, dated 2026).

Legend:
Type in all cases: biochemical
human CLK1 = target: T1, human CLK1 (Homo sapiens, UniProt P49759); assay: CLK1 enzyme assay (ADP-Glo); conditions: ADP-Glo, ATP 10 μM; read-out: CLK1 IC50
T1 construct: Recombinant human CLK1 (129-end); GST (N); purchased SignalChem C57-11G; host or cells: Sf9 insect cells
Method in brief: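 GST-tagged CLK1 (129-end, Sf9-expressed) at 16 nM was preincubated with compound 30 min at 25 °C in 40 mM Tris pH 7.5, 20 mM MgCl2, 0.1 mg/ml BSA, 50 μM DTT. Reaction with 2 μM substrate and 10 μM ATP ran 60 min at 25 °C. ADP-Glo luminescence gave IC50 by four-parameter fit.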

human HIPK2 = target: T2, human HIPK2 (Homo sapiens, UniProt Q9H2X6); assay: HIPK2 enzyme assay (ADP-Glo); conditions: ADP-Glo, ATP 5 μM; read-out: HIPK2 IC50
T2 construct: Recombinant human HIPK2 (1-640); GST (N); purchased SignalChem H04-11BG; host or cells: Sf9 insect cells
Method in brief: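 GST-tagged HIPK2 (1-640) from Sf9, 1 nM, preincubated 30 min at 25° C with inhibitor in 40 mM Tris pH 7.5, 20 mM MgCl2. Reaction ran 90 min at 25° C with GST-MBP substrate at 0.05 mg/ml and 5 μM ATP. ADP-Glo luminescence; IC50 by four-parameter logistic fit.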

human DYRK1A = target: T3, human DYRK1A (Homo sapiens, UniProt Q13627); assay: DYRK1A enzyme assay (ADP-Glo); conditions: ADP-Glo, ATP 60 μM; read-out: DYRK1A IC50
T3 construct: Recombinant full-length DYRK1A (expressed in E. Coli cells with an N-terminal GST tag); GST (N); purchased SignalChem D09-10G; host or cells: E. coli
Method in brief: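 ADP formed is quantified by luciferase luminescence (ADP-Glo) after a 60-minute, 25 °C reaction with 60 μM ATP and 20 μM DYRKtide peptide. Enzyme: 3 nM recombinant N-terminal GST DYRK1A, given 30 min compound preincubation in Tris pH 7.5/MgCl2/BSA/DTT buffer; % inhibition versus plate controls, four-parameter IC50.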

T2 sequence (Q9H2X6 1-640): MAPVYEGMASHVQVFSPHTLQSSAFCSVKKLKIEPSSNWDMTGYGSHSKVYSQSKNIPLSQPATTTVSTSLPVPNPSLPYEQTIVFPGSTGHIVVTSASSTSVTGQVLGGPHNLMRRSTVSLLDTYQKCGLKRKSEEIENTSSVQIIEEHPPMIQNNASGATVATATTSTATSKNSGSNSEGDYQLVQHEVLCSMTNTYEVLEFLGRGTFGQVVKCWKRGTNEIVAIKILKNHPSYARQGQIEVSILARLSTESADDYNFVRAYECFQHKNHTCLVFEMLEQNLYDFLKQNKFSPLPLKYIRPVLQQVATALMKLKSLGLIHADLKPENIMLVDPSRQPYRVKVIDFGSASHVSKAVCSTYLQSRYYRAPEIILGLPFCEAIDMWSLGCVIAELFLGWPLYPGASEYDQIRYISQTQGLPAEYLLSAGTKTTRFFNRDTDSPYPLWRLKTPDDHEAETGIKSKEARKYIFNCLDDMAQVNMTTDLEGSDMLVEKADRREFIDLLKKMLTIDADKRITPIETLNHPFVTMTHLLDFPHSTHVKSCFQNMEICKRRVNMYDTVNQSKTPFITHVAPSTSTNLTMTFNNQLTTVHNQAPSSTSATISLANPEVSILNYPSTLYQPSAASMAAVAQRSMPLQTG
T1 sequence (P49759 129-484 limits assumed): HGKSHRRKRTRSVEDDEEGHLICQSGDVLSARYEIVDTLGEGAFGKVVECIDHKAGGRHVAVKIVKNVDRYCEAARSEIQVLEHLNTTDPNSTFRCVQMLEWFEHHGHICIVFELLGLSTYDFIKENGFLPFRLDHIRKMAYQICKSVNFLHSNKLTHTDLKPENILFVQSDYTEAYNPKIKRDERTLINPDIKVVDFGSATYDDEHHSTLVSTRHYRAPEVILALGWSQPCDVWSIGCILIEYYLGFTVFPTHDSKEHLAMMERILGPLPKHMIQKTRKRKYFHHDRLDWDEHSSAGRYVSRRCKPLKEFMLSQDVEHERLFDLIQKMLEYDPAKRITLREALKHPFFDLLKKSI

Row | Structure (SMILES) | IC50 (human CLK1) [µM] | IC50 (human HIPK2) [µM] | IC50 (human DYRK1A) [µM]
1 | CN(C1=N/C(=C\c2ccc3ncsc3c2)C(=O)N1)c1ccc([N+](=O)[O-])cc1 [Example 43, (Z)-5-(benzo[d]thiazol-6-ylmethylene)-2-(methyl(4-nitrophenyl)amino)-3,5-dihydro-4H-imidazol-4-one] | 1 to 10 | > 10 | 1 to 10
2 | CN(C1=N/C(=C\c2ccc3ncsc3c2)C(=O)N1)c1ccc(N)cc1 [Example 44, (Z)-2-((4-aminophenyl)(methyl)amino)-5-(benzo[d]thiazol-6-ylmethylene)-3,5-dihydro-4H-imidazol-4-one] | 0.1 to 1 | 1 to 10 | 0.1 to 1
3 | CC(C)NC1=N/C(=C\c2ccc3ncsc3c2)C(=O)N1C [Example 45, (Z)-5-(benzo[d]thiazol-6-ylmethylene)-2-(isopropylamino)-3-methyl-3,5-dihydro-4H-imidazol-4-one] | < 0.1 | 1 to 10 | 0.1 to 1
4 | Cn1cnc2ccc(/C=C3\N=C(Nc4ccccc4)NC3=O)cc21 [Example 46, (Z)-5-((1-methyl-1H-benzo[d]imidazol-6-yl)methylene)-2-(phenylamino)-3,5-dihydro-4H-imidazol-4-one] | < 0.1 | 0.1 to 1 | < 0.1
5 | O=C1NC(Nc2ccc3ncsc3c2)=N/C1=C\c1ccc2c(c1)OCO2 [Example 47, (Z)-5-(benzo[d][1,3]dioxol-5-ylmethylene)-2-(benzo[d]thiazol-6-ylamino)-3,5-dihydro-4H-imidazol-4-one] | > 10 | > 10 | > 10
6 | CC(C)NC1=N/C(=C\c2ccc3scnc3c2)C(=O)N1 [Example 49, (Z)-5-(benzo[d]thiazol-5-ylmethylene)-2-(isopropylamino)-3,5-dihydro-4H-imidazol-4-one] | > 10 | > 10 | > 10
7 | O=C1NC(NC23CC4CC(CC(C4)C2)C3)=N/C1=C\c1ccc2scnc2c1 [Example 50, (Z)-2-(adamantan-1-ylamino)-5-(benzo[d]thiazol-5-ylmethylene)-3,5-dihydro-4H-imidazol-4-one] | > 10 | > 10 | 1 to 10
8 | O=C1NC(Nc2ccccc2)=N/C1=C\c1ccc2[nH]ccc2c1 [Example 51, (Z)-5-((1H-indol-5-yl)methylene)-2-(phenylamino)-3,5-dihydro-4H-imidazol-4-one] | > 10 | > 10 | > 10
9 | O=C1NC(Nc2ccccc2)=N/C1=C\c1ccc2occc2c1 [Example 52, (Z)-5-(benzofuran-5-ylmethylene)-2-(phenylamino)-3,5-dihydro-4H-imidazol-4-one] | 0.1 to 1 | > 10 | > 10
10 | O=C1NC(Nc2ccccc2)=N/C1=C\c1ccc2ncccc2c1 [Example 53, (Z)-2-(phenylamino)-5-(quinolin-6-ylmethylene)-3,5-dihydro-4H-imidazol-4-one] | < 0.1 | 0.1 to 1 | < 0.1
11 | O=C1NC(Nc2ccccc2)=N/C1=C\c1ccc2cn[nH]c2c1 [Example 54, (Z)-5-((1H-indazol-6-yl)methylene)-2-(phenylamino)-3,5-dihydro-4H-imidazol-4-one] | > 10 | > 10 | > 10
12 | O=C1NC(Nc2ccccc2)=N/C1=C\c1ccc2[nH]ncc2c1 [Example 55, (Z)-5-((1H-indazol-5-yl)methylene)-2-(phenylamino)-3,5-dihydro-4H-imidazol-4-one] | < 0.1 | 0.1 to 1 | < 0.1
13 | O=C1NC(Nc2ccccc2)=N/C1=C\c1ccc2nn[nH]c2c1 [Example 56, (Z)-5-((1H-benzo[d][1,2,3]triazol-6-yl)methylene)-2-(phenylamino)-3,5-dihydro-4H-imidazol-4-one] | < 0.1 | 1 to 10 | < 0.1
14 | O=C1NC(Nc2ccc3ncsc3c2)=N/C1=C\c1ccc2[nH]ccc2c1 [Example 58, (Z)-5-((1H-indol-5-yl)methylene)-2-(benzo[d]thiazol-6-ylamino)-3,5-dihydro-4H-imidazol-4-one] | > 10 | > 10 | > 10
15 | O=C1NC(Nc2ccc3ncsc3c2)=N/C1=C\c1ccc2occc2c1 [Example 59, (Z)-2-(benzo[d]thiazol-6-ylamino)-5-(benzofuran-5-ylmethylene)-3,5-dihydro-4H-imidazol-4-one] | > 10 | > 10 | > 10
16 | O=C1NC(Nc2ccc3ncsc3c2)=N/C1=C\c1ccc2cccnc2c1 [Example 60, (Z)-2-(benzo[d]thiazol-6-ylamino)-5-(quinolin-7-ylmethylene)-3,5-dihydro-4H-imidazol-4-one] | > 10 | > 10 | > 10
17 | Cn1cnc2cc(NC3=N/C(=C\c4ccc5ncsc5c4)C(=O)N3)ccc21 [Example 61, (Z)-5-(benzo[d]thiazol-6-ylmethylene)-2-((1-methyl-1H-benzo[d]imidazol-5-yl)amino)-3,5-dihydro-4H-imidazol-4-one] | 0.1 to 1 | 0.1 to 1 | < 0.1
18 | O=C1NC(Nc2ccc3ncsc3c2)=N/C1=C\c1ccc2cc[nH]c2c1 [Example 63, (Z)-5-((1H-indol-6-yl)methylene)-2-(benzo[d]thiazol-6-ylamino)-3,5-dihydro-4H-imidazol-4-one] | > 10 | > 10 | > 10
19 | O=C1NC(Nc2ccc3[nH]ccc3c2)=N/C1=C\c1ccc2ncsc2c1 [Example 69, (Z)-2-((1H-indol-5-yl)amino)-5-(benzo[d]thiazol-6-ylmethylene)-3,5-dihydro-4H-imidazol-4-one] | < 0.1 | < 0.1 | < 0.1
20 | CN(C1=N/C(=C\c2ccc3c(c2)OCO3)C(=O)N1)c1ccc2ncsc2c1 [Example 70, (Z)-5-(benzo[d][1,3]dioxol-5-ylmethylene)-2-(benzo[d]thiazol-6-yl(methyl)amino)-3,5-dihydro-4H-imidazol-4-one] | < 0.1 | > 10 | > 10
21 | Cn1cnc2cc(/C=C3\N=C(Nc4ccccc4)NC3=O)ccc21 [Example 71, (Z)-5-((1-methyl-1H-benzo[d]imidazol-5-yl)methylene)-2-(phenylamino)-3,5-dihydro-4H-imidazol-4-one] | > 10 | > 10 | > 10
22 | O=C1NC(Nc2ccccc2)=N/C1=C\c1ccc2sccc2c1 [Example 72, (Z)-5-(benzo[b]thiophen-5-ylmethylene)-2-(phenylamino)-3,5-dihydro-4H-imidazol-4-one] | > 10 | > 10 | > 10
23 | O=C1NC(Nc2ccccc2)=N/C1=C\c1ccc2cc[nH]c2c1 [Example 73, (Z)-5-((1H-indol-6-yl)methylene)-2-(phenylamino)-3,5-dihydro-4H-imidazol-4-one] | > 10 | > 10 | > 10
24 | O=C1NC(Nc2ccc3ncsc3c2)=N/C1=C\c1ccc2c(c1)OCCO2 [Example 74, (Z)-2-(benzo[d]thiazol-6-ylamino)-5-((2,3-dihydrobenzo[b][1,4]dioxin-6-yl)methylene)-3,5-dihydro-4H-imidazol-4-one] | > 10 | > 10 | > 10
